Test systems include SK-MEL-5 melanoma; SR leukemia; SK-MEL-28 melanoma; EKVX NSCLC; HL-60(TB) leukemia; SF-295 CNS; HCT-15 colon; DU-145 prostate; MDA-MB-231 breast; SF-539 CNS; T-47D breast.
Assay in all cases: NCI tumour cell line growth inhibition, 48 h

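In this assay, cells in 96-well plates receive the compound at five concentrations for 48 hours. Endpoints are linearly interpolated between the surrounding concentrations. TGI denotes the concentration required for complete inhibition of growth.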

For the compound `Fc1ccc(C(=NCc2ccccc2)N2CCOCC2)cc1`, the TGI with SK-MEL-5 melanoma, in the assay on SR leukemia, with SK-MEL-28 melanoma, in the assay with EKVX NSCLC, in the assay with HL-60(TB) leukemia and with SF-295 CNS was greater than 100 µM in each case. The TGI in the assay on HCT-15 colon, with DU-145 prostate, in the assay on MDA-MB-231 breast and with SF-539 CNS was greater than 100 µM throughout.

In the case of `Cn1cc(C(=O)C2CCCCC2)ccc1=O`, the TGI in the assay with SK-MEL-5 melanoma, in the assay with SR leukemia, in the assay with SK-MEL-28 melanoma, with EKVX NSCLC, in the assay with HL-60(TB) leukemia and in the assay on SF-295 CNS was greater than 100 µM throughout. The TGI in the assay on HCT-15 colon and with SF-539 CNS was greater than 100 µM throughout.

Regarding `CCOC(=O)/C(O)=C(\C=N\C(=S)Nc1ccc(Cl)c(Cl)c1)C(=O)OCC`, the TGI in the assay with SK-MEL-5 melanoma is greater than 100 µM; in the assay on SR leukemia, greater than 100 µM; with SK-MEL-28 melanoma it was greater than 100 µM; with EKVX NSCLC, greater than 100 µM; with HL-60(TB) leukemia, 59.7 µM; in the assay on SF-295 CNS, greater than 100 µM. Further, the TGI in the assay with HCT-15 colon, with DU-145 prostate, with MDA-MB-231 breast and in the assay with SF-539 CNS was greater than 100 µM throughout.

`O=c1[nH]c2ccc(CC(=S)N3CCN(c4ccccc4)CC3)cc2s1`: the TGI in the assay with SR leukemia, in the assay on SK-MEL-28 melanoma, with EKVX NSCLC, with HL-60(TB) leukemia, in the assay with SF-295 CNS and with HCT-15 colon was greater than 100 µM throughout. Also, the TGI in the assay on DU-145 prostate, with MDA-MB-231 breast and in the assay with SF-539 CNS was greater than 100 µM in each case.

Turning to `COc1ccc(NS(=O)C2CCCCC2)cc1` (stereo unspecified), the TGI in the assay on SK-MEL-5 melanoma, with SR leukemia, with SK-MEL-28 melanoma, in the assay with EKVX NSCLC, in the assay on HL-60(TB) leukemia and in the assay on SF-295 CNS was greater than 100 µM in each case. Moreover, the TGI in the assay on HCT-15 colon, in the assay with DU-145 prostate, in the assay on MDA-MB-231 breast and in the assay on SF-539 CNS was greater than 100 µM throughout.

Turning to `CCC1OC2C(CC=C(C)C)=C3OC(C)(O)C(C)(CC)C(O)C3=C3OC(=O)C=C1C32` (stereo unspecified), the TGI in the assay on SK-MEL-5 melanoma, in the assay on SK-MEL-28 melanoma, with EKVX NSCLC, in the assay with SF-295 CNS, with HCT-15 colon and with DU-145 prostate was greater than 100 µM each time. The TGI in the assay on MDA-MB-231 breast is 75.5 µM; in the assay with SF-539 CNS, 53.6 µM; in the assay on T-47D breast, greater than 100 µM.

Turning to `Nc1nc(Cl)cc(NCC2(CO)CC(CCCCc3ccccc3)C2)n1` (stereo unspecified), the TGI in the assay on SK-MEL-5 melanoma is greater than 100 µM; in the assay with SR leukemia it was greater than 100 µM; in the assay on SK-MEL-28 melanoma it was greater than 100 µM; in the assay with EKVX NSCLC it was greater than 100 µM; in the assay on HL-60(TB) leukemia, 38.3 µM; in the assay with SF-295 CNS, greater than 100 µM. Besides, the TGI with HCT-15 colon, with DU-145 prostate, with MDA-MB-231 breast and in the assay on SF-539 CNS was greater than 100 µM throughout.

For the compound `Cc1cccc(Nc2cn(CCOc3ccccc3)c(=O)[nH]c2=O)c1`, the TGI in the assay with SK-MEL-5 melanoma was 70.2 µM; in the assay with SR leukemia, greater than 100 µM; with SK-MEL-28 melanoma it was greater than 100 µM; in the assay with EKVX NSCLC, 39.8 µM; in the assay on SF-295 CNS, greater than 100 µM; in the assay on HCT-15 colon, greater than 100 µM. Also, the TGI in the assay on DU-145 prostate was greater than 100 µM.

On to `O=Cc1cc(O)c(O)c(O)c1-c1c(C=O)cc(O)c(O)c1O`, for which the TGI in the assay with SK-MEL-5 melanoma, with SR leukemia, in the assay with SK-MEL-28 melanoma, in the assay on EKVX NSCLC, in the assay on HL-60(TB) leukemia and in the assay on SF-295 CNS was greater than 100 µM in each case. For the same compound, the TGI with HCT-15 colon and with SF-539 CNS was greater than 100 µM throughout.

Regarding `CC(=O)NC1C(OCC(=O)NC(C)C(=O)NC(CCC(=O)NCCCCCNc2ccc([N+](=O)[O-])c3[nH]c4ccccc4c(=O)c23)C(N)=O)C(O)C(CO)OC1(C)OCc1ccccc1` (stereo unspecified), the TGI in the assay with SK-MEL-5 melanoma is greater than 50 µM; in the assay on EKVX NSCLC it was greater than 50 µM; with SF-295 CNS it was greater than 50 µM; in the assay with HCT-15 colon, greater than 50 µM; in the assay on DU-145 prostate it was greater than 50 µM; in the assay on MDA-MB-231 breast it was 31.4 µM. The TGI in the assay with SF-539 CNS and in the assay on T-47D breast was greater than 50 µM in each case.

For `N=C(/C=C/c1ccc(-c2cn3cc(/C=C/C(=N)N4CCOCC4)ccc3n2)cc1)N1CCOCC1`, the TGI with SK-MEL-5 melanoma, with SK-MEL-28 melanoma, in the assay with EKVX NSCLC, with SF-295 CNS, with HCT-15 colon and in the assay with DU-145 prostate was greater than 100 µM throughout. For the same compound, the TGI in the assay with MDA-MB-231 breast, in the assay with SF-539 CNS and with T-47D breast was greater than 100 µM in each case.

Consider `c1ccc(/C(=N/Nc2cnccn2)c2ncccn2)cc1`, for which the TGI in the assay on SK-MEL-5 melanoma, with SR leukemia, with SK-MEL-28 melanoma, with EKVX NSCLC, in the assay with SF-295 CNS and in the assay on HCT-15 colon was greater than 100 µM each time. Further, the TGI with DU-145 prostate, with MDA-MB-231 breast and in the assay on SF-539 CNS was greater than 100 µM in each case.

As for `CC(=O)OC(C)(C)C1CCC(C)(C(O)COc2ccc(CCNC(=O)c3ccccc3)cc2)O1` (stereo unspecified), the TGI is 29.4 µM with SK-MEL-5 melanoma; greater than 100 µM with SR leukemia; greater than 100 µM in the assay with SK-MEL-28 melanoma; 67.8 µM in the assay with HL-60(TB) leukemia; greater than 100 µM in the assay with SF-295 CNS; greater than 100 µM in the assay on HCT-15 colon. In the assay on SF-539 CNS, this compound yielded a TGI greater than 100 µM.

In the case of `N#CC(C(=O)c1ccccc1F)c1nc2cc(C(F)(F)F)ccc2s1` (stereo unspecified), the TGI with SK-MEL-5 melanoma was 52.3 µM; in the assay with SK-MEL-28 melanoma it was greater than 100 µM; in the assay with EKVX NSCLC, 81.6 µM; in the assay on SF-295 CNS, 73.4 µM; in the assay on HCT-15 colon it was 56.7 µM; in the assay on DU-145 prostate, greater than 100 µM. Further, the TGI is greater than 100 µM with MDA-MB-231 breast, 78.5 µM in the assay on SF-539 CNS and greater than 100 µM in the assay with T-47D breast.

On to `C=C1C(=O)O[C@H]2C1C[C@@H](O)[C@@]1(C)OC1CC[C@@]1(C)O[C@H]21` (stereo partly specified), for which the TGI in the assay on SK-MEL-5 melanoma is 29.6 µM; in the assay with SR leukemia, 39.8 µM; with SK-MEL-28 melanoma it was 38.8 µM; in the assay on EKVX NSCLC, 36 µM; with SF-295 CNS, greater than 100 µM; with HCT-15 colon, 37.9 µM. In addition, the TGI in the assay on DU-145 prostate is greater than 100 µM; in the assay with MDA-MB-231 breast, 40.7 µM.

The record behind these values is PubChem BioAssay (NCI).
